Reference: patent publication US10881645B2, “Methods for controlling blood pressure and reducing dyspnea in heart failure” (Chiesi Farmaceutici S.p.A., priority 2012, dated 2021)

Experiments:
[1] = system: AHF patients with SBP of ≥160 mmHg; assay: Safety analyses of the AHF trial (hypotension, adverse events, deaths)
Description: (§1) A randomized open label 13-center trial enrolled AHF patients with SBP of ≥160 mmHg, sitting dyspnea score ≥50 on a 100 mm VAS, and a physician's clinical diagnosis of AHF with pulmonary congestion by chest auscultation.
(§2) If the target blood pressure range was not reached within 30 minutes, or not maintained thereafter, alternative antihypertensive agents were allowed per physician discretion, with or without continuation of the study drug.
(§3) Two populations were analyzed. The “safety” population included all patients receiving any study drug, and was used for all safety analyses.
Historical ejection fraction data was recorded when available.

[2] = in vivo; cited from earlier work
[3] = system: AHF patients with SBP of ≥160 mmHg; assay: Dyspnea assessment by 100 mm VAS, VMAC scale and PDA; type: in vivo, human
Description: Dyspnea was assessed by a 100 mm VAS, in which a score of 0 was “no dyspnea” and a score of 100 represented “worst possible dyspnea.” Dyspnea was evaluated immediately prior to study drug administration, and at 15, 30, 45, 60, 120, 360 and 720 minutes afterward. In addition, the Vasodilation in the Management of Acute Congestive Heart Failure (VMAC) scale, a relative 7 point Likert score, and the Provocative Dyspnea Assessment (PDA) (Pang et al, Eur Heart J2008, 29) were both performed in the seated and supine positions and recorded.

[4] = system: AHF patients with SBP of ≥160 mmHg; assay: Randomized open label 13-center trial: blood pressure control, clevidipine vs standard of care; type: in vivo, human
Description: as §1, §2, §3

[5] = AHF population, 30-minute target SBP range

## CCCC(=O)OCOC(=O)C1=C(C)NC(C)=C(C(=O)OC)C1c1cccc(Cl)c1Cl (stereo not drawn) [clevidipine]
[1]; human, in vivo
  Duration of SBP <90 mmHg: 3.3 min
  Patients who exceeded their lower target blood pressure range limit: 15 patients
  Patients with at least one related TEAE, %: 9.8%
  Proportion of time that SBP was <90 mmHg while on study drug: 2.5%
  SBP <90 mmHg occurred, % of patients: 5.9%
  SBP <90 mmHg occurred, patients: 3 patients
  Study drug related TEAE: Abdominal discomfort, %: 2.0%
  Study drug related TEAE: Abdominal pain, %: 2.0%
  Study drug related TEAE: Blurred vision, %: 2.0%
  Study drug related TEAE: Flushing, %: 2.0%
  Study drug related TEAE: Headache, %: 2.0%
  Study drug related TEAE: Myalgia, %: 2.0%
  Study drug related TEAE: Nausea, %: 2.0%
  Study drug related TEAE: Ventricular tachycardia, %: 2.0%
[1]; human, in vivo, 30 days
  Incidence of serious adverse events: 23.5%
[1]; in vivo
  Mean by which the lower target limit was exceeded: 8.7 mmHg
  Mean heart rate change from baseline to 30 minutes: 2.6 bpm
  Symptomatic hypotension, patients: one
[1]; none during study drug administration
  Patients expired within 30 days of treatment: 3 patients
[2]
  Half-life: about 1 minute
[3]; at 45 minutes, 100 mm dyspnea VAS
  Mean VAS decrease from baseline: 37.1 mm
[3]; in vivo
  Effect on dyspnea compared with nicardipine: significantly greater than the effect of nicardipine on dyspnea
[3]; vs SOC
  VAS dyspnea scores over time (treatment×time effect): decreased more from baseline with clevidipine than SOC
  VMAC and PDA scores: non-significant trends toward greater improvement with clevidipine than SOC
[4]; [5]
  Target blood pressure range achieved, % of patients: 70.5%
  Target blood pressure range achieved, patients/total: 31/44
[4]; in vivo
  AUC above the target blood pressure, median: 327 mmHg×min/h
  AUC below the target blood pressure, median: 0 mmHg×min/h
  AUC outside the target blood pressure, median: 379 mmHg×min/h
  Patients requiring additional antihypertensives: 15.9%
  Rate of being within, but not below, the target blood pressure range: 45.5%
[4]; patients in which the target range was achieved
  Median time to reach target blood pressure range: 15 min

## O=[N+]([O-])OCC(CO[N+](=O)[O-])O[N+](=O)[O-] [nitroglycerin]
[3]; FIG. 2D, compared with clevidipine
  Speed of VAS improvement, SOC subsets: neither nitroglycerin nor nicardipine improved VAS as quickly as clevidipine
